Laboratory results as given in article PMC9026285 (ACS Chemical Neuroscience, 2022).
One block for each compound: values may come before it.

Experiments:
Half-life in mice = settings: mouse, in vivo
[1] = test system: GFAP (astrogliosis), pS129 and human α-synuclein; assay: GFAP immunoassay and histopathology in Line 61 mice; assay type: in vivo, mouse; settings: hippocampus, 24 weeks
recombinant human HexA = target: T1, recombinant human HexA (Homo sapiens, UniProt P06865); assay: Hexosaminidase A assay; assay type: biochemical
T1 sequence (P06865 89-529): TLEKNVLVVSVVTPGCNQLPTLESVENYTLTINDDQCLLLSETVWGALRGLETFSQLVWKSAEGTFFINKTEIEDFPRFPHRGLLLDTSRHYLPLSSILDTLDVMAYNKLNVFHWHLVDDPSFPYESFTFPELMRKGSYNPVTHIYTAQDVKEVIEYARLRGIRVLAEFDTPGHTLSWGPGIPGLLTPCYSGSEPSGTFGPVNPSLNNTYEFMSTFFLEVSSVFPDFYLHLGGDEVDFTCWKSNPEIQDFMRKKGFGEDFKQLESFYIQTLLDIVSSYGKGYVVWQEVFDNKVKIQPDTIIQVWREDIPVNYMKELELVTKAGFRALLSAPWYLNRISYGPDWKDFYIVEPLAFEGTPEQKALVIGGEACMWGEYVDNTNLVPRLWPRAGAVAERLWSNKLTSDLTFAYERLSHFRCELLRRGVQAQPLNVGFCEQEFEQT

[2] = test system: Line 61 α-synuclein transgenic mice; assay: Beam walk test in Line 61 α-synuclein transgenic mice, chronic treatment; assay type: in vivo, mouse; settings: Line 61 mice, 30 and 100 mg/kg/day oral, after 12 weeks, persisted to week 24
[3] = test system: protein O-GlcNAcylation in human PBMC; assay: In vitro PBMC cell-based assay, human PBMC; settings: 4 h, read-out: EC50, protein O-GlcNAcylation in human PBMC
[4] = test system: brain protein and α-synuclein O-GlcNAcylation; assay: O-protein and O-GlcNAcylated α-synuclein; settings: Line 61 mice; for increase in brain protein O-GlcNAcylation (mean): 24 weeks, t = 4 h post-dose
[5] = test system: HexA/B from human placenta; assay: Hexosaminidase A/B assay; assay type: biochemical
hTauP301L mice = assay: Chronic; assay type: in vivo, mouse; settings: P301L mice
[6] = cited from earlier work
[7] = up to the highest concentration tested (30 μM)

Structure (SMILES): CC(=O)Nc1nnc(N2CCN([C@@H](C)c3ccc4c(c3)OCO4)CC2)s1 [ASN90, (S)-N-(5-(4-(1-(benzo[d][1,3]dioxol-5-yl)ethyl)piperazin-1-yl)-1,3,4-thiadiazol-2-yl)acetamide]
half-life (Half-life in mice): 2.8 h
object size for pS129 α-synuclein immunoreactivity [1]: significant decrease
total α-synuclein immunoreactivity [1]: unchanged
inhibitory activity on HexA (recombinant human HexA; [7]): no inhibitory activity
motor performance in three types of beam walk (slips) [2]: highly significant treatment benefit
EC50 [3]: 0.209 µM
increase in brain protein O-GlcNAcylation (mean) ([4]; 30 mg/kg/day): +78%
increase of O-GlcNAcylated α-synuclein as % of total ([4]; 100 mg/kg, chronic, vs vehicle): 1.7 fold
increase in brain protein O-GlcNAcylation (mean) ([4]; 100 mg/kg/day): +105%
inhibitory activity on HexA/B [5, 7]: no inhibitory activity
survival (hTauP301L mice; 30 and 100 mg/kg/day oral, 6 months): significantly increased survival
effect on pathogenic tau pS202/205 (AT8) (hTauP301L mice; brainstem and hippocampus, chronic treatment): no statistically significant treatment effects

IC50 (recombinant human HexA): 0.49 µM
IC50 ([5]; read-out: IC50 HexA/B): 0.031 µM
Structure (SMILES): CC(=O)N[C@H]1/C(=N/OC(=O)Nc2ccccc2)O[C@H](CO)[C@@H](O)[C@@H]1O [PUGNAc, reference compound]

Structure (SMILES): CCN=C1N[C@@H]2[C@@H](O)[C@H](O)[C@@H](CO)O[C@@H]2S1 [Thiamet G]
brain-to-plasma ratio [6]: 0.1
